A short description of experiment [1]: Dissociation constant against beta adrenergic receptor of turkey erythrocyte membranes.
Experiment [2] in a line: Dissociation constant against beta adrenergic receptor of frog erythrocyte membranes.
The nature of experiment [3]: Dissociation constant against beta adrenergic receptor.

For orientation: Kd means the equilibrium constant for the complex coming apart. For the compound `CC(C)(Cc1ccc(N=[N+]=[N-])cc1)NCC(O)COc1ccc(I)c2[nH]c3ccccc3c12` (stereo not given), the Kd in experiment [1] and in experiment [2] was 0.02 nM throughout.

For `CC(C)(Cc1ccc(N=[N+]=[N-])c(I)c1)NCC(O)COc1cccc2[nH]c3ccccc3c12` (stereo not given), the Kd in experiment [1] and in experiment [2] was 0.02 nM each time.

`CC(C)NCC(O)COc1cccc2[nH]c3ccccc3c12` (stereo not given) [CARAZOLOL] displayed a Kd in experiment [3] of 0.1 nM.

(Values after ChEMBL document CHEMBL1122492, “Synthesis of iodine-125 labeled (+/-)-15-(4-azidobenzyl)carazolol: a potent beta-adrenergic photoaffinity probe” (J Med Chem, 1983).)
